Results: patent US20250059182A1, “SOS1 INHIBITORS” (Mirati Therapeutics, Inc., priority 2021, published 2025)
Structures can show the parent of a compound that is named as a salt. Where two headings read alike, the source gives them in different places.

What was measured:
[1] = molecular target: T1, recombinant human SOS1 polypeptide (amino acids 560-1049) (Homo sapiens, UniProt Q07889); experiment: HTRF displacement assay: inhibition of labeled tracer binding to SOS1; settings: Table A1, Morrison equation for competitive binding
T1 construct: corresponding to amino acids 560-1049, expressed in E. Coli; made in house; host or cells: E. coli
T1 sequence (Q07889 560-1049): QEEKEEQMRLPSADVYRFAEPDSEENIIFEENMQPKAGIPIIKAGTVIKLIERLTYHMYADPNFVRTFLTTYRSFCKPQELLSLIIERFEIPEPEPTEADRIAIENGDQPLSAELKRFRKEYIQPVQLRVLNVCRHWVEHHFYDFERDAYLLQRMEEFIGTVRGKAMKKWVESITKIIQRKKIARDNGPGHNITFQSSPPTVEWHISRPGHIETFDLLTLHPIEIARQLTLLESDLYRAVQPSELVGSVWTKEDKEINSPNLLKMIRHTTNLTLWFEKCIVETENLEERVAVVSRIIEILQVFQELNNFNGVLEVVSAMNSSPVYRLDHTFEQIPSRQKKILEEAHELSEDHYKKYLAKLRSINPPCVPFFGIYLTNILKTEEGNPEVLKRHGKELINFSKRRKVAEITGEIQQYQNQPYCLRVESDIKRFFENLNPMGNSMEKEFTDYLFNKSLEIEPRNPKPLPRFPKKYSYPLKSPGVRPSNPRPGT
Procedure: The ability of a compound of Formula (I) to bind to SOS1 was measured using a HTRF displacement assay. […] After a 1-hour incubation at room temperature, the HTRF signal was measured using Clairostar plate reader (BMG Labtech) according to the manufacturer's instructions. Excitation filter EX-TR was used, and emission 1 was detected at 650-610 nm and emission 2 detected at 620-610 nm. The HTRF ratio was calculated using the formula: [emission 1/emission 2]*10000.
Background signals were calculated from well with a 10 μM inhibitor, known to inhibit 100% at that concentration. The background subtracted signals were converted to % binding relative to DMSO controls. Data were analyzed using XLFIT software (IDBS) using a Morrison equation for competitive binding and Ki's were generated compound of Formula (I).

pERK in MKN1 cells = experiment: pERK inhibition, In-Cell Western (LI-COR Odyssey), MKN1 cells; type: cell-based; settings: Homo sapiens
Outline: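 MKN1 cells were exposed for about 0.5–1 h at 37 °C to nine 3-fold dilutions starting at 10 µM. Cells were then fixed in formaldehyde, permeabilised with methanol, and immunostained for pERK and GAPDH with near-infrared secondary antibodies. GAPDH-normalised pERK signal relative to vehicle gave % inhibition, from which IC50 was fitted.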

[2] = MKN-1, Table B1, MKN1 or H358 cells (table does not say which), 0.5-1 hour incubation, read-out: IC50 (nM), pERK inhibition
[3] = MKN-1, read-out: IC50 (nM), pERK inhibition

Q: Which results are given for Cc1nnc(N[C@H](C)c2cccc(C(C)(F)F)c2F)c2cc(-c3ccc(=O)n(C)c3)ncc12 [Example P-175, (R)-5-(1-((1-(3-(1,1-difluoroethyl)-2-fluorophenyl)ethyl)amino)-4-methylpyrido[3,4-d]pyridazin-7-yl)-1-methylpyridin-2(1H)-one]?
A: Ki [1]: 15.4 nM; IC50 (pERK in MKN1 cells; [2]): 415 nM

Q: For Cc1c(C#N)cccc1[C@@H](C)Nc1nnc(N2CC[C@H](N(C)C)C2)c2cnc(N3C[C@H]4C[C@@H]3CO4)cc12 [Example P-176, 3-((R)-1-((7-((1R,4R)-2-oxa-5-azabicyclo[2.2.1]heptan-5-yl)-4-((S)-3-(dimethylamino)pyrrolidin-1-yl)pyrido[3,4-d]pyridazin-1-yl)amino)ethyl)-2-methylbenzonitrile], which Ki [1] is on record?
A: 0.708 nM

Q: What about the IC50 (pERK in MKN1 cells; [2]) of the same compound?
A: 120 nM

Q: For Cc1c(C#N)cccc1[C@@H](C)Nc1nnc(N2CC(N)C2)c2cnc(N3C[C@H]4C[C@@H]3CO4)cc12 [Example P-177, 3-((R)-1-((4-(3-aminoazetidin-1-yl)-7-((1R,4R)-2-oxa-5-azabicyclo[2.2.1]heptan-5-yl)pyrido[3,4-d]pyridazin-1-yl)amino)ethyl)-2-methylbenzonitrile], which Ki [1] is on record?
A: 0.541 nM

Q: What about the IC50 (pERK in MKN1 cells; [2]) of the same compound?
A: 451 nM

Q: Which results are given for Cc1c(C#N)cccc1[C@@H](C)Nc1nnc(C)c2cc(F)c(N(C)[C@@H]3CCN(C)C3)cc12 [Example P-178, 3-((R)-1-((6-fluoro-4-methyl-7-(methyl((R)-1-methylpyrrolidin-3-yl)amino)phthalazin-1-yl)amino)ethyl)-2-methylbenzonitrile]?
A: Ki [1]: 1.1 nM; IC50 (pERK in MKN1 cells; [2]): 54.7 nM

Q: What does the source list for Cc1c(C#N)cccc1[C@@H](C)Nc1nnc(C)c2cc(F)c(N(C)[C@H]3CCN(C)C3)cc12 [Example P-179, 3-((R)-1-((6-fluoro-4-methyl-7-(methyl((S)-1-methylpyrrolidin-3-yl)amino)phthalazin-1-yl)amino)ethyl)-2-methylbenzonitrile]?
A: Ki [1]: 0.714 nM; IC50 (pERK in MKN1 cells; [2]): 84.7 nM

Q: With Cc1c(C#N)cccc1[C@@H](C)Nc1nnc(N2CC(N(C)C)C2)c2cnc(N3C[C@H]4C[C@@H]3CO4)cc12 [Example P-180, 3-((R)-1-((7-((1R,4R)-2-oxa-5-azabicyclo[2.2.1]heptan-5-yl)-4-(3-(dimethylamino)azetidin-1-yl)pyrido[3,4-d]pyridazin-1-yl)amino)ethyl)-2-methylbenzonitrile] as the compound, how does the Ki [1] read?
A: 0.491 nM

Q: What about the IC50 (pERK in MKN1 cells; [2]) of the same compound?
A: 53.4 nM

Q: With Cc1nnc(N[C@H](C)c2cccc(C(F)(F)F)c2F)c2cc(N(C)[C@H]3CCN(C)C3)c(F)cc12 [Example P-181, 6-fluoro-N^1-((R)-1-(2-fluoro-3-(trifluoromethyl)phenyl)ethyl)-N7,4-dimethyl-N^7-((S)-1-methylpyrrolidin-3-yl)phthalazine-1,7-diamine] as the compound, how does the Ki [1] read?
A: 0.711 nM

Q: What about the IC50 (pERK in MKN1 cells; [2]) of the same compound?
A: 223 nM

Q: With Cc1nnc(N[C@H](C)c2cccc3c2OCC3(F)F)c2cc(N3C[C@@H]4C[C@H]3CN4C)ncc12 [Example P-184, N-((R)-1-(3,3-difluoro-2,3-dihydrobenzofuran-7-yl)ethyl)-4-methyl-7-((1S,4S)-5-methyl-2,5-diazabicyclo[2.2.1]heptan-2-yl)pyrido[3,4-d]pyridazin-1-amine formic acid salt] as the compound, how does the Ki [1] read?
A: 1.02 nM

Q: And the IC50 (pERK in MKN1 cells; [3])?
A: 65.7 nM

Q: Which Ki [1] does the source give for Cc1c(C#N)cccc1[C@@H](C)Nc1nnc(C)c2cc(C(F)F)c(N3CCN(C)CC3)cc12 [Example P-185, (R)-3-(1-((6-(difluoromethyl)-4-methyl-7-(4-methylpiperazin-1-yl)phthalazin-1-yl)amino)ethyl)-2-methylbenzonitrile formic acid] here?
A: 4.95 nM

Q: What about the IC50 (pERK in MKN1 cells; [3]) of the same compound?
A: 118 nM

Q: Which results are given for Cc1c(C#N)cccc1[C@@H](C)Nc1nnc(C)c2cc(CF)c(N3CCN(C)CC3)cc12 [Example P-186, (R)-3-(1-((6-(fluoromethyl)-4-methyl-7-(4-methylpiperazin-1-yl)phthalazin-1-yl)amino)ethyl)-2-methylbenzonitrile]?
A: Ki [1]: 1.27 nM; IC50 (pERK in MKN1 cells; [2]): 181 nM

Q: How did the Ki [1] turn out when Cc1c(C#N)cccc1[C@@H](C)Nc1nnc(C)c2c(C)nc(N3CCOCC3)cc12 [Example P-188, (R)-3-(1-((4,5-dimethyl-7-morpholinopyrido[3,4-d]pyridazin-1-yl)amino)ethyl)-2-methylbenzonitrile] was run?
A: 2.5 nM

Q: What about the IC50 (pERK in MKN1 cells; [2]) of the same compound?
A: 49.1 nM

Q: How did the Ki [1] turn out when Cc1c(C#N)cccc1[C@@H](C)Nc1nnc(C)c2c(C)nc(N(C)[C@H]3CCN(C)C3)cc12 [Example P-190, 3-((R)-1-((4,5-dimethyl-7-(methyl((S)-1-methylpyrrolidin-3-yl)amino)pyrido[3,4-d]pyridazin-1-yl)amino)ethyl)-2-methylbenzonitrile] was run?
A: 0.572 nM

Q: And the IC50 (pERK in MKN1 cells; [2])?
A: 63.6 nM

Q: What does the source list for Cc1c(C#N)cccc1[C@@H](C)Nc1nnc(C)c2c(C)nc(N3CCN(C)C(C)(C)C3)cc12 [Example P-191, (R)-3-(1-((4,5-dimethyl-7-(3,3,4-trimethylpiperazin-1-yl)pyrido[3,4-d]pyridazin-1-yl)amino)ethyl)-2-methylbenzonitrile]?
A: Ki [1]: 0.892 nM; IC50 (pERK in MKN1 cells; [2]): 26 nM

Q: What does the source list for Cc1c(C#N)cccc1[C@@H](C)Nc1nnc(C)c2c(C)nc(N3C[C@H]4C[C@@H]3CN4C)cc12 [Example P-192, 3-((R)-1-((4,5-dimethyl-7-((1R,4R)-5-methyl-2,5-diazabicyclo[2.2.1]heptan-2-yl)pyrido[3,4-d]pyridazin-1-yl)amino)ethyl)-2-methylbenzonitrile]?
A: Ki [1]: 2.93 nM; IC50 (pERK in MKN1 cells; [2]): 104 nM

Q: Which results are given for Cc1c(C#N)cccc1[C@@H](C)Nc1nnc(C)c2cc(Cl)c(N(C)[C@H]3CCN(C)C3)cc12 [Example P-193, 3-((R)-1-((6-chloro-4-methyl-7-(methyl((S)-1-methylpyrrolidin-3-yl)amino)phthalazin-1-yl)amino)ethyl)-2-methylbenzonitrile]?
A: Ki [1]: 1.47 nM; IC50 (pERK in MKN1 cells; [2]): 512 nM

Q: With Cc1c(C#N)cccc1[C@@H](C)Nc1nnc(C)c2cc(Cl)c(N(C)[C@@H]3CCN(C)C3)cc12 [Example P-194, 3-((R)-1-((6-chloro-4-methyl-7-(methyl((R)-1-methylpyrrolidin-3-yl)amino)phthalazin-1-yl)amino)ethyl)-2-methylbenzonitrile] as the compound, how does the Ki [1] read?
A: 5.27 nM

Q: What about the IC50 (pERK in MKN1 cells; [2]) of the same compound?
A: 231 nM

Q: With Cc1c(C#N)cccc1[C@@H](C)Nc1nnc(C)c2cc(Cl)c(N(C)C)cc12 [Example P-195, (R)-3-(1-((6-chloro-7-(dimethylamino)-4-methylphthalazin-1-yl)amino)ethyl)-2-methylbenzonitrile formic acid salt] as the compound, how does the Ki [1] read?
A: 154 nM

Q: And the IC50 (pERK in MKN1 cells; [3])?
A: 7130 nM

Q: Which Ki [1] does the source give for Cc1c(C#N)cccc1[C@@H](C)Nc1nnc(C)c2cc(Cl)c(N(C)C[C@H]3CCCN3C)cc12 [Example P-196, 3-((R)-1-((6-chloro-4-methyl-7-(methyl(((R)-1-methylpyrrolidin-2-yl)methyl)amino)phthalazin-1-yl)amino)ethyl)-2-methylbenzonitrile formic acid salt] here?
A: 5.98 nM

Q: What about the IC50 (pERK in MKN1 cells; [3]) of the same compound?
A: 584 nM

Q: How did the Ki [1] turn out when Cc1c(C#N)cccc1[C@@H](C)Nc1nnc(C)c2cc(Cl)c(N3CCS(=O)(=O)CC3)cc12 [Example P-197, (R)-3-(1-((6-chloro-7-(1,1-dioxidothiomorpholino)-4-methylphthalazin-1-yl)amino)ethyl)-2-methylbenzonitrile] was run?
A: 8.97 nM

Q: What about the IC50 (pERK in MKN1 cells; [2]) of the same compound?
A: 204 nM

Q: Which Ki [1] does the source give for Cc1c(C#N)cccc1[C@@H](C)Nc1nnc(C)c2cc(Cl)c(N3CCC34CN(C)C4)cc12 [Example P-198, (R)-3-(1-((6-chloro-4-methyl-7-(6-methyl-1,6-diazaspiro[3.3]heptan-1-yl)phthalazin-1-yl)amino)ethyl)-2-methylbenzonitrile] here?
A: 1.1 nM

Q: And the IC50 (pERK in MKN1 cells; [2])?
A: 182 nM

Q: With Cc1nnc(N[C@H](C)c2cccc(C(C)(F)F)c2F)c2cc(N(C)[C@@H]3CCN(C)C3)ncc12 [Example P-199, N1-((R)-1-(3-(1,1-difluoroethyl)-2-fluorophenyl)ethyl)-N7,4-dimethyl-N7-((R)-1-methylpyrrolidin-3-yl)pyrido[3,4-d]pyridazine-1,7-diamine] as the compound, how does the Ki [1] read?
A: 0.321 nM

Q: And the IC50 (pERK in MKN1 cells; [2])?
A: 59.1 nM

Q: How did the Ki [1] turn out when Cc1nnc(N[C@H](C)c2cccc(C(C)(F)F)c2F)c2cc(N(C)[C@H]3CCN(C)C3)ncc12 [Example P-200, N1-((R)-1-(3-(1,1-difluoroethyl)-2-fluorophenyl)ethyl)-N7,4-dimethyl-N7-((S)-1-methylpyrrolidin-3-yl)pyrido[3,4-d]pyridazine-1,7-diamine] was run?
A: 0.517 nM

Q: And the IC50 (pERK in MKN1 cells; [2])?
A: 6.77 nM

Q: How did the Ki [1] turn out when Cc1c(C#N)cccc1[C@@H](C)Nc1nnc(C)c2cnc(N3CCOCC34CN(C)C4)cc12 [Example P-211, (R)-2-methyl-3-(1-((4-methyl-7-(2-methyl-8-oxa-2,5-diazaspiro[3.5]nonan-5-yl)pyrido[3,4-d]pyridazin-1-yl)amino)ethyl)benzonitrile] was run?
A: 13.4 nM

Q: And the IC50 (pERK in MKN1 cells; [2])?
A: 503 nM

Q: How did the Ki [1] turn out when Cc1ccccc1[C@@H](C)Nc1nnc(C)c2cnc(N3CCOCC3)cc12 [Example P-212, (R)-4-methyl-7-morpholino-N-(1-(o-tolyl)ethyl)pyrido[3,4-d]pyridazin-1-amine] was run?
A: 54.8 nM

Q: And the IC50 (pERK in MKN1 cells; [2])?
A: 894 nM
